Measurements published in paper PMC8838982 (Bioorganic chemistry, 2021).
pEC50, pIC50: −log10 of the molar value. Read-outs that look alike come from different tables or passages of the source.

Experiments:
[1] = target: influenza virus polymerase (Influenza A virus, UniProt P03433); assay: cell-based; assay type: cell-based, influenza virus A/PR/8/34
[2] = target: Pandemic H1N1 N-terminal PA endonuclease (PAN) (Influenza A virus, UniProt C3W5S0); assay: FRET-based; assay type: biochemical
[3] = Inhibition of polymerase activity EC50
[4] = read-out: Inhibition of polymerase activity EC50

Molecule | pEC50 [1, 3] | pIC50 [2] | other results
O=C1c2c(ccc(O)c2O)CN1Cc1ccccc1 [Compound 14, 2-benzyl-6,7-dihydroxyisoindolin-1-one] | 4.92 | 7.34 to 7.64 | 
O=C1c2c(ccc(O)c2O)CN1Cc1ccc(F)c(Cl)c1 [Compound 15, 2-(3-chloro-4-fluorobenzyl)-6,7-dihydroxyisoindolin-1-one] | 5.44 | 7.34 to 7.64 | EC50/IC50 ratio (cellular versus enzyme assay) [1]: 145
Cc1ccc(CN2Cc3ccc(O)c(O)c3C2=O)cc1 [Compound 16, 2-(4-methylbenzyl)-6,7-dihydroxy-isoindolin-1-one] |  |  | pEC50 [1, 4]: 5.39
O=C1c2c(ccc(O)c2O)CN1Cc1ccc(O)cc1 [Compound 17, 2-(4-hydroxybenzyl)-6,7-dihydroxy-isoindolin-1-one] | 5.38 | 7.34 to 7.64 | Fold increase in EC50 compared to wild-type [1]: 1.0 fold
O=C1c2c(ccc(O)c2O)CN1Cc1ccc(F)cc1 [Compound 18, 2-(4-fluorobenzyl)-6,7-dihydroxyisoindolin-1-one] | 5.09 | 7.34 to 7.64 | 
O=C1c2c(ccc(O)c2O)CN1Cc1ccc(C(F)(F)F)cc1 [Compound 19, 2-(4-(trifluoromethyl)benzyl)-6,7-dihydroxy-isoindolin-1-one] | 4.72 |  | Reduction of PAN inhibitory activity compared to the 4-F analogue 18 ([2]; factor, relative to 18): 9 fold
O=C1c2c(ccc(O)c2O)CN1Cc1ccc([N+](=O)[O-])cc1 [Compound 20, 2-(4-nitrobenzyl)-6,7-dihydroxy-isoindolin-1-one] | 4.55 | 7.34 to 7.64 | 
O=C1c2c(ccc(O)c2O)CN1Cc1ccc2ccccc2c1 [Compound 21, 2-(naphthalen-2-ylmethyl)-6,7-dihydroxy-isoindolin-1-one] | 5.27 | 7.52 | 
O=C1c2c(ccc(O)c2O)CN1Cc1cccc2ccccc12 [Compound 22, 2-(naphthalen-1-ylmethyl)-6,7-dihydroxy-isoindolin-1-one] | 4.59 |  | 
O=C1c2c(ccc(O)c2O)CN1CCc1ccc(O)cc1 [Compound 23, 2-(4-hydroxyphenethyl)-6,7-dihydroxy-isoindolin-1-one] |  |  | pEC50 [1, 4]: 4.72
NC(=O)c1ncn([C@@H]2O[C@H](CO)[C@@H](O)[C@H]2O)n1 [Ribavirin, ribavirin] | 4.96 |  | 
baloxavir acid [BXA] |  |  | Fold increase in EC50 compared to wild-type [1]: 1.0 fold; pEC50 [1, 4]: 8.80
